Source: ChEMBL document CHEMBL1133424, “Fluoresceinated FKBP12 ligands for a high-throughput fluorescence polarization assay” (Bioorg Med Chem Lett, 2000)

How the values were obtained:
[1] = biological target: T1, Peptidyl-prolyl cis-trans isomerase FKBP1A (Homo sapiens, UniProt P62942); assay: Binding affinity of compound for FK506 binding protein 12
[2] = biological target: T1, Peptidyl-prolyl cis-trans isomerase FKBP1A; assay: Concentration required to produce a half-maximal FP signal at against FK506 binding protein 12 at ligand concentration of 100 nM

T1 sequence (P62942 whole entry): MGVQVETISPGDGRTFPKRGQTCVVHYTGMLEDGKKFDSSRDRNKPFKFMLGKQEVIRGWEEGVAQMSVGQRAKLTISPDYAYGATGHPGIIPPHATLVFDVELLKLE

Ki [1] [nM] | IC50 [2] [nM] | SMILES
526 | 410 | COc1cc(C(=O)C(=O)N2CCCC[C@H]2C(=O)OCCCC/N=C(S)/N=C2\C=CC(=C3c4ccc(O)cc4Oc4cc(O)ccc43)C(C(=O)O)=C2)cc(OC)c1OC
1300 | 1650 | CCC(C)(C)C(=O)C(=O)N1CCC[C@H]1C(=O)OCCC/N=C(S)/N=C1\C=CC(=C2c3ccc(O)cc3Oc3cc(O)ccc32)C(C(=O)O)=C1
32 | 250 | CC(C)(C)CC(=O)C(=O)N1CCCC[C@H]1C(=O)OC(CCCc1ccccc1)CC/N=C(S)/N=C1\C=CC(=C2c3ccc(O)cc3Oc3cc(O)ccc32)C(C(=O)O)=C1 (stereo partly drawn)
482 | 980 | CC(C)(C)CC(=O)C(=O)N1CCCC[C@H]1C(=O)OCCC/N=C(S)/N=C1\C=CC(=C2c3ccc(O)cc3Oc3cc(O)ccc32)C(C(=O)O)=C1
